Where two headings read alike, the source gives them in different places.
Key:
Type in all cases: cell-based
[1] = tested on: S. aureus ATCC 29213; assay: MIC by NCCLS microdilution, antibacterial agents with and without EPI; conditions: for reduction of the MIC of EtBr: S. aureus wild type, EPI up to 100 μg/ml, data not shown; for Fold-reduction in MIC: gatifloxacin; for effect of EPI on the MIC of gatifloxacin: wild type strain ATCC 29213; for MIC: Staphylococcus aureus
Procedure: 3% sterile laked horse blood (Quad Five, Ryegate, Mont.) was added to assays for E. faecalis and S. Pneumoniae. A final concentration of 1% DMSO was present in all assays. […]
A-106 and C-9 were tested at their respective MECs in combination with a variety of different classes of antibiotics against S. aureus ATCC 29213 (Table 2).

[2] = tested on: S. aureus ATCC 29213; assay: as above; conditions: at 100 μg/ml
[3] = tested on: S. aureus SA-1199B; assay: Minimal effective concentration (MEC) of EPI for gatifloxacin; conditions: for MEC: S. aureus SA-1199B (NorA overproducer), lowest amount of EPI which produces the maximum effect on the MIC of gatifloxacin; for MEC for gatifloxacin: efflux mutant, strain not named in the sentence (SA-1199B by context)
Procedure: (§1) The MEC was determined as the minimal concentration of EPI that produced the maximal reduction in substrate MIC.
(§2) Since any given compound may be recognized by an unknown number of efflux pumps in a particular organism, we reasoned that the MEC of A-106 and C-9 should vary for different antibiotics. Also, the MEC of A-106 and C-9 should vary with the degree of efflux expression in a given strain. […] This was confirmed with two other wild type strains, SA-8325-4 and SA-1199 (Table 3).
(§3) The MEC of A-106 and C-9 for gatifloxacin was determined in these efflux mutants. […] A similar result was obtained with efflux mutant K2068, where the MEC for A-106 was 6.25 μg/ml and the MEC for C-9 was 3.1 μg/ml. […] This may reflect that either gatifloxacin is recognized by fewer pumps than EtBr or it is a poorer efflux substrate in general. This is consistent with the finding that the activity of A-106 was non-saturable for EtBr but is saturable for gatifloxacin.

[4] = tested on: S. aureus K2068; assay: as above; conditions: for MEC: S. aureus K2068 (nonNorA pump overproducer), lowest amount of EPI which produces the maximum effect on the MIC of gatifloxacin; for MEC for gatifloxacin: efflux mutant K2068
Procedure: as §1, §2, §3

[5] = tested on: S. aureus SA-1199B (NorA overproducing); assay: MIC of fluoroquinolones with and without EPI; conditions: for reduction of MIC of ciprofloxacin / reduction of MIC of gatifloxacin / reduction of MIC of levofloxacin / reduction of MIC of norfloxacin: SA-1199B, EPIs at 4 times MEC for EtBr, A-106 at 100 μg/ml; for Fold-reduction in MIC: gatifloxacin, S. aureus SA-1199B (NorA overproducer); for MIC: Staphylococcus aureus, read-out: MIC of EtBr with EPI
Excerpt: A variety of strains may be used in these experiments, including, but not limited to, S. aureus ATCC 29213, E. faecalis ATCC 29212, and S. pneumoniae, S. aureus strains SA-1199, SA-1199B, SA-8325-4, and SA-K2068. S. aureus ATCC 29213, E. faecalis ATCC 29212, and S. pneumoniae ATCC 10015 were obtained from the American Type Culture Collection (Manassas, Va.). S. aureus strains SA-1199 (clinical isolate, susceptible), SA-1199B (SA-1199, NorA overproducing, also has A116E GrlA mutation), SA-8325-4 (NCTC 8325 cured of prophages), SA-K2068 (SA-8325-4, non-NorA multidrug efflux pump overproducing mutation) were obtained from Glenn Kaatz (Kaatz et al., “Identification and characterization of a novel efflux-related multidrug resistance phenotype in Staphylococcus aureus”, J. Antimicrob. Chemother. 50:833-838 (2002); 1993; Kaatz et al., “Phenothiazines and thioxanthenes inhibit multidrug efflux pump activity in Staphylococcus aureus”, Antimicrob. Agents Chemother. 47:719-726, Kaatz et al., “Efflux-mediated fluoroquinolone resistance in Staphylococcus aureus. Antimicrob. Agents Chemother.”, 37:1086-1094, 1993)).
3% sterile laked horse blood (Quad Five, Ryegate, Mont.) was added to assays for E. faecalis and S. Pneumoniae. A final concentration of 1% DMSO was present in all assays.
Recent more hydrophobic fluoroquinolones such as gatifloxacin and moxifloxacin are less well recognized by NorA; however, recently one other pump in S. aureus has been described which also recognizes hydrophobic fluoroquinolones (Kaatz et al. 2002, supra). To investigate the potential of A-106 and C-9 to block the efflux of several fluoroquinolones in cells with constituitively over-expressed efflux pumps, we used S. aureus strains SA-1199B and K2068 (Table 3). […] Kaatz et al., “Phenothiazines and thioxanthenes inhibit multidrug efflux pump activity in Staphylococcus aureus”, Antimicrob. Agents Chemother. 47:719-726 (2003).

[6] = S. aureus ATCC 29213, EPI at 4X the MEC for EtBr, VX-710 at 100 μg/ml
[7] = S. aureus ATCC 29213, EPIs used at the MEC, except VX-710 at 100 μg/ml
[8] = S. aureus SA-1199B (NorA overproducer) (Table 4)
[9] = S. aureus SA-1199B, EPI at 4X the MEC for EtBr, VX-710 at 100 μg/ml

Structure (SMILES)	MIC of gatifloxacin with EPI ([1]; S. aureus ATCC 29213 (Table 4)) [µg/mL]	MIC of ciprofloxacin with EPI [1, 6] [µg/mL]	MIC of gatifloxacin with EPI [1, 6] [µg/mL]	MIC of gentamicin with EPI [1, 6] [µg/mL]	MIC of levofloxacin with EPI [1, 6] [µg/mL]	MIC of norfloxacin with EPI [1, 6] [µg/mL]	Fold-reduction in EtBr MIC [1, 7]	reduction of the MIC of EtBr [1] [fold]	Fold-reduction in MIC ([1]; S. aureus ATCC 29213)	effect of EPI on the MIC of gatifloxacin [1]	intrinsic antibacterial activity of EPI [2]	MEC [3] [µg/mL]	MEC for gatifloxacin [3] [µg/mL]	MEC [4] [µg/mL]	MEC for gatifloxacin [4] [µg/mL]	MIC of gatifloxacin with EPI [5, 8] [µg/mL]	MIC of ciprofloxacin with EPI [5, 9] [µg/mL]	MIC of levofloxacin with EPI [5, 9] [µg/mL]	MIC of norfloxacin with EPI [5, 9] [µg/mL]	Fold-reduction in MIC [5]	further results
COc1cc(C(=O)C(=O)N2CCCC[C@H]2C(=O)OC(CCCc2cccnc2)CCCc2cccnc2)cc(OC)c1OC [A-106]	0.125	0.063	0.063	0.125	0.125	0.125	31	30	1	unaffected	no intrinsic antibacterial activity	12.5	12.5	6.25	6.25	0.25	0.5	0.5	2	2	effect on the MICs of gatifloxacin, erythromycin, azithromycin, chloramphenicol, ceftriaxone, and linezolid ([1]; S. aureus ATCC 29213, Table 2): No effect; MIC of EPI ([1]; S. aureus ATCC 29213, EPI alone): >100 µg/mL; MIC of EtBr with EPI [1, 6]: 0.2 µg/mL; MIC of EtBr with EPI [1, 7]: 0.2 µg/mL; MIC of EtBr with EPI [5, 9]: 0.4 µg/mL; reduction of MIC of ciprofloxacin [5]: 2 fold; reduction of MIC of gatifloxacin [5]: 2 fold; reduction of MIC of levofloxacin [5]: 1 fold; reduction of MIC of norfloxacin [5]: 8 fold
COc1cc(C(=O)C(=O)N(C)[C@@H](Cc2ccc(Cl)cc2)C(=O)N(Cc2ccccc2)C(CCc2ccncc2)CCc2ccncc2)cc(OC)c1OC [C-9, (S)—N-Benzyl-2-(methyl-(2-oxo-2-(3,4,5-trimethoxyphenyl)acetyl)amino)-3-(4-chloro-phenyl)-N-(3-pyridin-4-yl-1-(2-pyridin-4-yl-ethyl)propyl)propionamide]	0.125	0.125	0.063	0.125	0.125	0.5	4	30	1	unaffected	no intrinsic antibacterial activity	3.1	3.1	3.1	3.1	0.25	2	1	8	2	MIC ([1]; ATCC29213, read-out: MIC of EPI, S. aureus ATCC 29213, EPI alone): > 100 µg/mL; MIC ([1]; ATCC29213, read-out: MIC of EtBr with EPI, S. aureus ATCC 29213, EPI at 4X the MEC for EtBr, VX-710 at 100 μg/ml): 0.8 µg/mL; MIC ([1]; ATCC29213, read-out: MIC of EtBr with EPI, S. aureus ATCC 29213, EPIs used at the MEC, except VX-710 at 100 μg/ml): 1.6 µg/mL; MIC of gatifloxacin with EPI [5, 9]: 0.25 µg/mL; MIC of gentamicin with EPI [5, 9]: 0.125 µg/mL; reduction of MIC of ciprofloxacin [5]: 8 fold; reduction of MIC of gatifloxacin [5]: 4 fold; reduction of MIC of levofloxacin [5]: 2 fold; reduction of MIC of norfloxacin [5]: 32 fold; MIC [5]: 3.1 µg/mL
COC(=O)[C@H]1[C@H]2C[C@@H]3c4[nH]c5cc(OC)ccc5c4CCN3C[C@H]2C[C@@H](OC(=O)c2cc(OC)c(OC)c(OC)c2)[C@@H]1OC [reserpine, reference compound]	0.125	0.063	0.063	0.125	0.125	0.25	4	–	1	–	–	25	–	3.1	–	0.25	0.5	0.5	4	2	MIC ([1]; ATCC29213, S. aureus ATCC 29213, EPI alone, read-out: MIC of EPI): > 100 µg/mL; MIC ([1]; ATCC29213, S. aureus ATCC 29213, EPI at 4X the MEC for EtBr, VX-710 at 100 μg/ml, read-out: MIC of EtBr with EPI): 0.4 µg/mL; MIC ([1]; ATCC29213, S. aureus ATCC 29213, EPIs used at the MEC, except VX-710 at 100 μg/ml, read-out: MIC of EtBr with EPI): 1.6 µg/mL; MIC of gatifloxacin with EPI [5, 9]: 0.125 µg/mL; MIC of gentamicin with EPI [5, 9]: 0.125 µg/mL; MIC [5]: 0.8 µg/mL
